These results are taken from patent publication US5646185A, “Tumor treatment method” (priority 1993, dated 1997).

Data set [1] deals with A549 human adenocarcinoma cells. The experiment in a line: Survival (colony forming) assay of tumor cells under aerobic or hypoxic conditions with drug treatment. Conditions: for aerobic cytotoxicity of the drug by itself: TPA 1 uM, PDA 1 uM, OAG 200 uM, thapsigargin 2 uM, compound 48/80 50 mg/ml, pentoxyfylline 1 mM; for effect on cell survival in normally oxygenated (aerated) cells: aerated A549 cells; for reduction of cell survival in hypoxic cells relative to the cell survival fraction with hypoxia alone: 20 hours of hypoxia (0.02% O2). As to the method:
A549 human adenocarcinoma cells were maintained in culture with alpha MEM containing 10% fetal calf serum. Cells were plated two days before hypoxia treatment in 60 mm glass (Corning) tissue culture dishes with notched sides at a density of 1×10^6 cells/dish. Hypoxia treatment of cells may be performed in any method known and available to those skilled in the art.
On the day of the hypoxia treatment, cells were re-fed with fresh media and incubated 4-6 hours before being exposed to hypoxia. The petri dishes were preferably then placed in specially designed aluminum hypoxia chambers that are prewarmed overnight at 37° C. The chambers were sealed and subjected to successive rounds of evacuation followed by flushing with 95% N2 /5% CO2 while slowly being agitated on a reciprocating shaker. The chambers were then placed in a 37° C. incubator and kept on a reciprocating shaker for the duration of the hypoxic treatment.
Oxygen concentration may be monitored with the use of a Clark-type electrode, such as commercially available from Controls Katharobic, Edmonton, Canada.
After hypoxic treatment, the seals to the chambers were broken, and the cells were washed with phosphate buffered saline, trypsinized, and then plated into tissue culture dishes to assay for colony forming ability.
All drugs were made from fresh stocks on the day of the treatment. In the combined drug and hypoxia treatments, the cells were pretreated for one hour with the drug before being exposed to hypoxia and then plated into tissue culture plates. Cells were then treated in accordance with several different methods: 1) exposure of the cells to thapsigargin for one hour prior to and continuous exposure for the duration of the hypoxia, and then plated for survival; 2) one hour exposure to the PKC activator drug in standard air followed by continuous exposure for the duration of hypoxia, and then plated for survival; 3) continuous exposure during hypoxia to TPA followed by immediate plating for survival; 4) 19 hour hypoxia treatment followed by one hour exposure to TPA in air or hypoxia using a Bactron II anaerobic chamber (Sheldon Labs, Cornelius, Oreg.), and then plating for survival; 5) continuous exposure during 19 hours of hypoxia with phospholipase inhibitors (compound 48/80 and pentoxyfylline), exposure to TPA for 1 hour in air, and then plating for survival.
TPA, PDA, staurosporine, compound 48/80, and pentoxyfylline are commercially available from Sigma Chemicals, St. Louis, Mo. Thapsigargin, herbimycin A, and genistein are commercially available from Gibco/BRL, Gaithersberg, Md.
After various experimental treatments, cells were plated into Nunc tissue culture plates at the appropriate concentrations in triplicate. The plates are placed in a 37° C. incubator and stained 10 days after the experiment with 1% crystal violet in 10% methanol. Viable colonies are defined as colonies with 50 or more cells.

For another data set, the system named is PKC-epsilon. As to the kind of experiment: Western blot of PKC epsilon levels in hypoxic tumor cells. The class given is cell-based, human. As to conditions: for effect on PKC epsilon induction/activation by hypoxia and TPA: alone or in combination, FIG. 9. As to the method:
Western blotting methods, as detailed in Example 2, were used to validate that the treatment method of the invention increases levels of PKC. […] Little accumulation is seen before 9 hours of hypoxic exposure.
Cells were lysed in a 50 mM phosphate buffer, sonicated with 4.5 second pulses of 75 W with cooling on ice between pulses, and followed by 3 rounds of freezing/thawing. Protein concentrations of each sample may be estimated using the bicinchoninic acid method. 200 μg of protein were loaded per lane. After running for 2 hours at 40 mA in a 7.5% polyacrylamide gel, the gel is transferred onto Hybond ECL, (Amersham, Arlington Heights, Ill.) for 2 hours with the use of a Bio-Rad semi-dry transfer system. After the transfer, the gel may be stained with 0.15% Coomassie blue to ensure uniform transfer. […] Preferably, the membrane is probed using the method described in Kim, et al., which is incorporated herein by reference, and autoradiographed utilizing enhanced chemiluminescence (ECL) according to the manufacturer's protocol (Amersham, Arlington Heights, Ill.).

For data set [2], the system named is A549 human adenocarcinoma cells. The experiment in a line: Pulsed-field gel electrophoresis of DNA degradation in hypoxia-treated cells. It is filed as cell-based. As to conditions: added to hypoxia treated cells. The source says:
The mechanism of cell death by hypoxia appears to be necrosis rather than apoptosis. Using pulsed-field gel electrophoresis, a steady increase in DNA degradation as a function of time under hypoxia may be found. The methods followed those given in Example 2. The pattern of DNA degradation (not shown) is not one that is characteristic of apoptosis. The DNA was not fragmented into distinct nucleosome ladders, which is one of the hallmark characteristics of apoptosis; rather, it separated as a smear which is indicative of death by necrosis.
Pulsed-field gel electrophoresis may be performed in any manner known and available to those skilled in the art. One preferred method is described in Giaccia, 1992b, which is incorporated herein by reference. Briefly, fresh media was added to all of the treatment groups on the day of the treatment. After treatment, cells were washed with phosphate buffered saline (PBS), trypsinized, and resuspended in 1% agarose/PBS. The cells embedded in agarose were allowed to solidify in glass tubes and then cut into 5 mm plugs. The plugs were lysed in 0.5M EDTA, 1% sarkosyl, and 1 mg/ml proteinase K (Boehringer Mannheim, Indianapolis), and incubated at 50° C. for 16 hours in this lysis buffer.
After dialyzing the plugs against 25 volumes of 10 mM Tris and 1 mM EDTA for 4 hours, the plugs were then treated with 20 mg/ml RNase A for 3 hours at 37° C. […]

Another data set has as its target protein kinase C (PKC). The experiment in a line: Protein kinase C (PKC) activation assay. As to conditions: approximate. It is filed as biochemical.

Protocol for protein kinase C (PKC): The EC50 is the concentration of compound that produces half-maximal stimulation of protein kinase C activity in a given assay.
Protein kinase C activation is measured in an assay that measures PKC phosphorylation activity using as substrate for PKC myelin basic protein. […] The reaction was initiated by an appropriate amount of crude cytosol extract. The phosphorylated product from 10 μl of reaction mixture was quantified using phospho-cellulose paper and washing method of Cook, et al. Background ^32 P incorporation in the absence of calcium and phosphatidyl serine/diolein and in the presence of 1 mM EGTA was subtracted from total incorporation in the complete PKC assay reaction mixture to determine the extent of PKC-dependent phosphorylation.
Suitable for use in this assay as a PKC source is either a crude extract, prepared as below, or, more preferably, purified PKC. Purified PKC is obtained from commercial sources.

As for `CCCCCCCC/C=C\CCCCCCCC(=O)OCC(CO)OC(C)=O` (stereo not shown) [OAG, 2-acetyl-1-oleoylglycerol], the “aerobic cytotoxicity of the drug by itself” value (“aerobic cytotoxicity” for short) in data set [1] is “little or no aerobic cytotoxicity”. Further, the “effect on cell survival in normally oxygenated (aerated) cells” value (from here on “effect on cell survival … (aerated) cells”) in data set [1] (FIG. 3) is “none of the PKC activators had an appreciable effect on cell survival”.
Consider `CCCCCCCCCC(=O)O[C@@H]1[C@@H](C)[C@@]2(O)[C@@H](C=C(CO)C[C@@]3(O)C(=O)C(C)=C[C@@H]23)[C@@H]2C(C)(C)[C@]12OC(=O)CCCCCCCCC` [PDA, 4α-phorbol-12-13-didecanoate], for which the “effect on steady state levels of PKC” value with PKC-epsilon (data not shown) is given as “has no effect”. Moreover, the “aerobic cytotoxicity” value in data set [1] was “little or no aerobic cytotoxicity”. The “effect on cell survival (control phorbol ester)” value in data set [1] (aerobic and hypoxic A549 cells, FIG. 3) is reported as “indistinguishable from no drug treatment”.
On to `CCCCCCCCCCCCCC(=O)O[C@@H]1[C@@H](C)[C@@]2(O)[C@@H](C=C(CO)C[C@]3(O)C(=O)C(C)=C[C@@H]23)[C@@H]2C(C)(C)[C@]12OC(C)=O` [TPA, 12-O-tetradecanoyl-phorbol-13-acetate], for which, in data set [2], the “DNA fragmentation over that found with hypoxia treatment alone” value is on record as “does not increase DNA fragmentation”. Moreover, the “increase in PKC levels over that of hypoxia alone” value in the data set with PKC-epsilon (one hour exposure following 19 hours of hypoxia, FIG. 7B, 60 min) is listed as 5 fold. Besides, the EC50 on protein kinase C (PKC) is roughly 1 µM. The “selective killing of hypoxic versus aerobic cells” value in data set [1] (1 μM, FIG. 3) is “selectively killed hypoxic, but not aerobic cells”. Moreover, in data set [1] (FIG. 3), the “reduction of cell survival in hypoxic cells relative to the cell survival fraction with hypoxia alone” value is recorded as “about 1,000 fold” and the “effect on cell survival … (aerated) cells” value is “none of the PKC activators had an appreciable effect on cell survival”. For the same molecule, the “aerobic cytotoxicity” value in data set [1] was “little or no aerobic cytotoxicity”.
As for `COC1C=CC=C(C)C(=O)NC2=CC(=O)C=C(C2=O)C(OC)C(C)CC(OC)C(OC)C(C)C=C(C)C1OC(N)=O` (stereo not shown) [herbimycin A], the “effect on PKC epsilon induction/activation by hypoxia and TPA” value in the data set with PKC-epsilon is reported as “has no effect on PKC induction”.
Take `CC(=O)CCCCn1c(=O)c2c(ncn2C)n(C)c1=O` [pentoxyfylline]: the “effect on PKC epsilon induction/activation by hypoxia and TPA” value in the data set with PKC-epsilon is recorded as “do not inhibit PKC activation”. In addition, the “protection against TPA mediated hypoxic cell killing (increase in survival)” value in data set [1] (inhibitor during 19 hours of hypoxia, then TPA 1 hour, FIG. 8) turned out to be 100 fold.
Turning to `C/C=C(/C)C(=O)O[C@H]1C(C)=C2[C@H]([C@@H]1OC(=O)CCCCCCC)[C@@](C)(OC(C)=O)C[C@H](OC(=O)CCC)[C@@]1(O)[C@H]2OC(=O)[C@@]1(C)O` [thapsigargin], the “selective killing of hypoxic cells” value in data set [1] (2 μM, FIG. 3) is recorded as “selectively killed hypoxic cells”. Also, in data set [1] (FIG. 3), the “reduction of cell survival in hypoxic cells relative to the cell survival fraction with hypoxia alone” value was “about 1,000 fold” and the “effect on cell survival … (aerated) cells” value is recorded as “none of the PKC activators had an appreciable effect on cell survival”. The “aerobic cytotoxicity” value in data set [1] is listed as “little or no aerobic cytotoxicity”.
